{"source": "patent US7446102B2", "about": "“Antibacterial amide macrocycles IV” (priority 2004, dated 2008)", "target": "S. aureus 133 translation", "test": "S. aureus in vitro transcription-translation assay (firefly luciferase, S30 extract)", "assay_type": "biochemical", "conditions": "50% inhibition of the translation of firefly luciferase", "text": "In Vitro Transcription-Translation with S. aureus Extracts\nConstruction of an S. aureus Luciferase Reporter Plasmid\nFor the construction of a reporter plasmid which can be used in an in vitro transcription-translation assay from S. aureus the plasmid pBESTluc (Promega Corporation, USA) is used. The E. coli tac promoter present in this plasmid in front of the firefly luciferase is replaced by the capA1 promoter with appropriate Shine-Dalgarno sequence from S. aureus. The primers CAPFor 5′-[…] […] […]-3′ and CAPRev 5′-[…]-3′ are used for this. The primer CAPFor contains the capA1 promoter, the ribosome binding site and the 5′ region of the luciferase gene. After PCR using pBESTluc as template it is possible to isolate a PCR product which contains the firefly luciferase gene with the fused capA1 promoter. This is, after restriction with ClaI and HindIII, ligated into the vector pBESTluc which has likewise been digested with ClaI and HindIII. The resulting plasmid p1a is able to replicate in E. coli and be used as template in the S. aureus in vitro transcription-translation assay.\nPreparation of S30 Extracts from S. aureus\nSix liters of BHI medium are inoculated with a 250 ml overnight culture of an S. aureus strain and allowed to grow at 37° C. until the OD600 nm is 2-4. The cells are harvested by centrifugation and washed in 500 ml of cold buffer A (10 mM Tris acetate, pH 8.0, 14 mM magnesium acetate, 1 mM DTT, 1 M KCl). After renewed centrifugation, the cells are washed in 250 ml of cold buffer A with 50 mM KCl, and the resulting pellets are frozen at −20° C. for 60 min. The pellets are thawed on ice in 30 to 60 min and taken up in buffer B (10 mM Tris acetate, pH 8.0, 20 mM magnesium acetate, 1 mM DTT, 50 mM KCl) up to a total volume of 99 ml. 1.5 ml portions of lysostaphin (0.8 mg/ml) in buffer B are introduced into 3 precooled centrifuge cups and each is mixed with 33 ml of the cell suspension. The samples are incubated at 37° C., shaking occasionally, for 45 to 60 min, before 150 μl of a 0.5 M DTT solution are added. The lysed cells are centrifuged at 30 000×g and 4° C. for 30 min. The cell pellet is taken up in buffer B and then centrifuged again under the same conditions, and the collected supernatants are combined. The supernatants are centrifuged again under the same conditions, and 0.25 volumes of buffer C (670 mM Tris acetate, pH 8.0, 20 mM magnesium acetate, 7 mM Na3 phosphoenolpyruvate, 7 mM DTT, 5.5 mM ATP, 70 μM amino acids (complete from Promega), 75 μg of pyruvate kinase (Sigma, Germany))/ml are added to the upper ⅔ of the supernatant. The samples are incubated at 37° C. for 30 min. The supernatants are dialysed against 21 of dialysis buffer (10 mM Tris acetate, pH 8.0, 14 mM magnesium acetate, 1 mM DTT, 60 mM potassium acetate) in a dialysis tube with a 3500 Da cut-off with one buffer change at 4° C. overnight. The dialysate is concentrated to a protein concentration of about 10 mg/ml by covering the dialysis tube with cold PEG 8000 powder (Sigma, Germany) at 4° C. The S30 extracts can be stored in aliquots at −70° C.\nDetermination of the IC50 in the S. aureus In Vitro Transcription-Translation Assay\nInhibition of protein biosynthesis of the compounds can be shown in an in vitro transcription-translation assay. The assay is based on the cell-free transcription and translation of firefly luciferase using the reporter plasmid p1a as template and cell-free S30 extracts obtained from S. aureus. The activity of the resulting luciferase can be detected by luminescence measurement.\nThe amount of S30 extract or plasmid p1a respectively to be employed must be tested anew for each preparation in order to ensure an optimal concentration in the assay. 3 μl of the substance to be tested, dissolved in 5% DMSO, are introduced into an MTP. Then 10 μl of a suitably concentrated plasmid solution p1a are added. […]", "note": "Where a name gives a salt, the structure may show the parent alone.", "data": [{"smiles": "NC[C@H](O)C[C@@H]1NC(=O)[C@@H](N)Cc2cc(ccc2O)-c2ccc(O)c(c2)C[C@@H](C(=O)O)NC1=O", "note": "[Example 20A, 14(S)-Amino-11(S)-(3-amino-2(R)-hydroxypropyl)-5,17-dihydroxy-10,13-dioxo-9,12-diazatricyclo[14.3.1.1^2,6]henicosa-1(19),2,4,6(21),16(20),17-hexaene-8(S)-carboxylic acid dihydrochloride, reference compound]", "values": [{"measurement": "IC50", "value": 1.5, "unit": "µM"}]}]}
